# From the CheMixHub ionic liquid set
# ± gives the uncertainty stated by the source.
# Assay: xn = mol fraction of the nth substance listed
# Details: 101 kPa
structure (smiles),measurement,setting,value
CCCCCCCCCCCCCC[n+]1ccccc1.O=C([O-])C(O)c1ccccc1 + NCC(=O)NCC(=O)O + O,electrical conductivity,"293.15 K, x1 = 5.26e-06, x2 = 0.0009002",0.00276 ± 0.00066 S/m
same,electrical conductivity,"293.15 K, x1 = 6.01e-06, x2 = 0.001799",0.00408 ± 0.0007 S/m
same,electrical conductivity,"293.15 K, x1 = 6.85e-06, x2 = 0",0.00248 ± 0.00074 S/m
same,electrical conductivity,"293.15 K, x1 = 9.97e-06, x2 = 0.0009002",0.00403 ± 0.00072 S/m
same,electrical conductivity,"293.15 K, x1 = 1.185e-05, x2 = 0.001799",0.00561 ± 0.00081 S/m
same,electrical conductivity,"293.15 K, x1 = 1.424e-05, x2 = 0",0.00472 ± 0.00079 S/m
same,electrical conductivity,"293.15 K, x1 = 1.486e-05, x2 = 0.0009002",0.0054 ± 0.0008 S/m
same,electrical conductivity,"293.15 K, x1 = 1.713e-05, x2 = 0.001799",0.00703 ± 0.00091 S/m
same,electrical conductivity,"293.15 K, x1 = 2.084e-05, x2 = 0.0009002",0.00697 ± 0.00092 S/m
same,electrical conductivity,"293.15 K, x1 = 2.126e-05, x2 = 0",0.00671 ± 0.0009 S/m
same,electrical conductivity,"293.15 K, x1 = 2.26e-05, x2 = 0.001799",0.0085 ± 0.001 S/m
same,electrical conductivity,"293.15 K, x1 = 2.537e-05, x2 = 0.0009002",0.0082 ± 0.001 S/m
same,electrical conductivity,"293.15 K, x1 = 2.788e-05, x2 = 0.001799",0.0098 ± 0.0011 S/m
same,electrical conductivity,"293.15 K, x1 = 2.811e-05, x2 = 0",0.0086 ± 0.001 S/m
same,electrical conductivity,"293.15 K, x1 = 3.117e-05, x2 = 0.0009002",0.0097 ± 0.0011 S/m
same,electrical conductivity,"293.15 K, x1 = 3.335e-05, x2 = 0.001799",0.0111 ± 0.0012 S/m
same,electrical conductivity,"293.15 K, x1 = 3.46e-05, x2 = 0",0.0103 ± 0.0011 S/m
same,electrical conductivity,"293.15 K, x1 = 3.679e-05, x2 = 0.0009002",0.011 ± 0.0012 S/m
same,electrical conductivity,"293.15 K, x1 = 3.864e-05, x2 = 0.001799",0.0122 ± 0.0013 S/m
same,electrical conductivity,"293.15 K, x1 = 4.108e-05, x2 = 0",0.0117 ± 0.0012 S/m
same,electrical conductivity,"293.15 K, x1 = 4.386e-05, x2 = 0.0009001",0.0123 ± 0.0013 S/m
same,electrical conductivity,"293.15 K, x1 = 4.574e-05, x2 = 0.001799",0.0134 ± 0.0014 S/m
same,electrical conductivity,"293.15 K, x1 = 4.811e-05, x2 = 0",0.0129 ± 0.0013 S/m
same,electrical conductivity,"293.15 K, x1 = 5.11e-05, x2 = 0.0009001",0.0133 ± 0.0014 S/m
same,electrical conductivity,"293.15 K, x1 = 5.321e-05, x2 = 0.001799",0.0145 ± 0.0015 S/m
same,electrical conductivity,"293.15 K, x1 = 5.388e-05, x2 = 0",0.0137 ± 0.0014 S/m
same,electrical conductivity,"293.15 K, x1 = 5.781e-05, x2 = 0.0009001",0.0143 ± 0.0015 S/m
same,electrical conductivity,"293.15 K, x1 = 5.982e-05, x2 = 0",0.0145 ± 0.0015 S/m
same,electrical conductivity,"293.15 K, x1 = 6.069e-05, x2 = 0.001799",0.0155 ± 0.0016 S/m
same,electrical conductivity,"293.15 K, x1 = 6.433e-05, x2 = 0.0009001",0.0152 ± 0.0015 S/m
same,electrical conductivity,"293.15 K, x1 = 6.559e-05, x2 = 0",0.0153 ± 0.0016 S/m
same,electrical conductivity,"293.15 K, x1 = 6.816e-05, x2 = 0.001799",0.0165 ± 0.0017 S/m
same,electrical conductivity,"293.15 K, x1 = 7.081e-05, x2 = 0",0.016 ± 0.0016 S/m
same,electrical conductivity,"293.15 K, x1 = 7.104e-05, x2 = 0.0009001",0.0161 ± 0.0016 S/m
same,electrical conductivity,"293.15 K, x1 = 7.454e-05, x2 = 0.001799",0.0173 ± 0.0018 S/m
same,electrical conductivity,"293.15 K, x1 = 7.604e-05, x2 = 0",0.0167 ± 0.0017 S/m
same,electrical conductivity,"293.15 K, x1 = 7.81e-05, x2 = 0.0009001",0.0171 ± 0.0018 S/m
same,electrical conductivity,"293.15 K, x1 = 8.072e-05, x2 = 0",0.0173 ± 0.0018 S/m
same,electrical conductivity,"293.15 K, x1 = 8.128e-05, x2 = 0.001799",0.0182 ± 0.0019 S/m
same,electrical conductivity,"298.15 K, x1 = 5.26e-06, x2 = 0.0009002",0.00323 ± 0.00075 S/m
same,electrical conductivity,"298.15 K, x1 = 6.01e-06, x2 = 0.001799",0.00487 ± 0.0008 S/m
same,electrical conductivity,"298.15 K, x1 = 6.85e-06, x2 = 0",0.00278 ± 0.00083 S/m
same,electrical conductivity,"298.15 K, x1 = 9.97e-06, x2 = 0.0009002",0.00465 ± 0.00081 S/m
same,electrical conductivity,"298.15 K, x1 = 1.185e-05, x2 = 0.001799",0.00655 ± 0.00092 S/m
same,electrical conductivity,"298.15 K, x1 = 1.424e-05, x2 = 0",0.00529 ± 0.00089 S/m
same,electrical conductivity,"298.15 K, x1 = 1.486e-05, x2 = 0.0009002",0.00621 ± 0.00092 S/m
same,electrical conductivity,"298.15 K, x1 = 1.713e-05, x2 = 0.001799",0.0082 ± 0.001 S/m
same,electrical conductivity,"298.15 K, x1 = 2.084e-05, x2 = 0.0009002",0.008 ± 0.001 S/m
